Laboratory results: patent US8609718B2, “Pharmaceutical composition used in treatment of hyperproliferative skin conditions and malignant melanomas comprising pachastrissamine as active ingredient” (Catholic University Industry Academy Cooperation Foundation, priority 2009, dated 2013)
Entries after “also recorded” stand apart in the source; their conditions may differ.

Assays:
B16F10 cell line = test: Cell counting by hemocytometer, trypan blue exclusion, B16F10; assay type: cell-based; settings: 24 hours
Procedure: (§1) A HaCaT cell line was cultured in the same manner as described in Example 1. The cultured HaCaT cell line was plated onto a 60 mm plate at a concentration of 5×10^4 cells/well, and cultured in a CO2 incubator (37° C., 5%) for 24 hours. The cultured cells in respective plates were treated with pachastrissamine at a concentration of 10 μg/ml, and cultured in a CO2 incubator (37° C., 5%) for 24, 36, and 48 hours, respectively. After the culturing, the cells were washed with PBS, treated with trypsin-EDTA, and completely detached from the plate. Then, a hemocytometer was used to count the cells through trypan blue exclusion.
(§2) HaCaT, B16F10 and A375 cell lines were cultured in the same manner as described in Example 1. The cultured HaCaT cell line was plated onto a 60 mm plate at a concentration of 5×10^4 cells/well, and cultured in a CO2 incubator (37° C., 5%) for 24 hours. The cultured respective cells were divided into 4 groups. […] These groups were cultured in a CO2 incubator (37° C., 5%) for 24 hours, and then the number of cells were measured in the same manner as described in Example 2-2.

A375 cell line = test: Cell counting by hemocytometer, trypan blue exclusion, A375; assay type: cell-based; settings: 24 hours
Procedure: as §1, §2

AKT = test: Western blotting of AKT phosphorylation; assay type: cell-based; settings: HaCaT, B16F10, A375, 10 μg/ml pachastrissamine, FIGS. 3A, 3B
Procedure: HaCaT, B16F10 and A375 cell lines were cultured in the same manner as described in Example 1. […] 30 minutes later, and 60 minutes later, each of the cell lines was resuspended in RIPA buffer [12 mM EDTA, 137 mM NaCl, 20 mM Tris-HCl (pH 8.0), 1 mM Na3VO4 (Sigma-Aldrich, USA) 10 mM NaF (Sigma), 1 mM PMSF (Sigma), 1% Triton X-100, 10% glycerol, protease inhibiting cocktail (Roche, Germany)], and then put on ice for 30 minutes so that the cells can be completely lysed. The lysate was centrifuged at 14000 rpm for 30 minutes, and the supernatant was collected. A BCA protein analysis kit (Pierce, Rockford, Ill.) was used to determine the concentration of each sample, and the sample was subjected to electrophoresis (SDS-PAGE). Western blotting was carried out on the protein isolated by the electrophoresis. After electrophoresis of the sample, the protein was transferred to a polyvinylidene fluoride membrane (Pall Corporation). Then, after blocking the membrane at room temperature for one hour using 5% BSA solution (Amresco, USA), it was treated with primary antibodies and reaction was carried out for 12 hours at 4° C. The primary antibodies were AKT antibody and Actin antibody (Cell Signaling Technology, Beverly, Mass.), which are antibodies associated in cell proliferation-related signaling. After reaction with primary antibodies, it was washed for about 30 minutes and further reacted for 1 hour at room temperature by treating with HRP-conjugated secondary antibodies. Then, after washing sufficiently for over 30 minutes, protein was identified using an ECL detection kit (intron Biotechnology).

ERK [1] = test: Western blotting of ERK activity (pERK) in HaCaT; assay type: cell-based, human; settings: pachastrissamine 10 μg/ml, U0126 20 nM, 30 minutes, FIG. 3C
Procedure: A HaCaT cell line was cultured in the same manner as described in Example 1. […] The last group was a negative control group (−) and was added with nothing.

ERK [2] = test: Western blotting of EGF-induced ERK activity in HEK293T; assay type: cell-based; settings: with 100 μg/ml of EGF, FIG. 3D
Procedure: In the same manner, in a sample of HEK293T (Kidney epithelial cell) cell line treated with pachastrissamine and 100 μg/ml of EGF (epidermal growth factor), ERK activity was determined (see FIG. 3D).

FoxO3a = test: Immunocytochemistry of intracellular FoxO3a distribution; assay type: cell-based
Procedure: In order to carry out Immunocytochemistry analysis, cells were transferred to chamber slides, and cultured in a CO2 incubator (37° C., 5%) for 24 hours. After about 12 hours of serum starvation, the cultured cell lines were treated with 10 μg/ml of pachastrissamine for 24 hours. The cell lines treated with pachastrissamine were fixed with 100% methanol, and washed with PBS. Then, in order to make the cells permeable, the cell lines were reacted in a 0.5% Triton X-100 and washed with a PBS solution. Then, by using a solution including 10% FBS and 0.1% gelatin, blocking was carried out at room temperature for 1 hour, and FoxO3a antibody was reacted at 4° C. for 12 hours. After the reaction, the cells were washed with PBS, reacted with a secondary antibody of Alex488 (invitrogen) at room temperature, and washed with PBS again. Finally, for nuclear stain, the cells were reacted with DAPI and washed with PBS. The slide was washed with PBS, attached with glass coverslip, and analyzed through a microscope.
After the cells with or without over-expression of beta-catenin were treated with pachastrissamine, the distribution of intracellular FoxO3a protein was determined in the same manner as described in Example 4-3.

ERK and FoxO3a = test: Immunoprecipitation of ERK, binding between ERK and FoxO3a; assay type: cell-based, human; settings: HaCaT; 10 μg/ml; 24 hours; anti-ERK immunoprecipitation; FIG. 4F
Procedure: In the same manner, a HaCaT cell line was treated with pachastrissamine, and immunoprecipitation was used to determine the degree of binding between ERK and FoxO3a, and the degree of FoxO3a ubiquitination caused by interaction. In order to carry out immunoprecipitation, the cells were plated on a 100 mm plate, and cultured in a CO2 incubator (37° C., 5%) for 24 hours. After about 12 hours of serum starvation, the cultured cell line was treated with 10 μg/ml of pachastrissamine for 24 hours. The cell line treated with pachastrissamine and another cell line not treated with pachastrissamine were resuspended in the RIPA buffer as described above, and then put on ice for 30 minutes so that the cells could be completely lysed. The lysate was centrifuged at 14000 rpm for 30 minutes, and the supernatant was collected. A BCA protein analysis kit (Pierce, Rockford, Ill.) was used to determine the concentration of each sample, and the samples in the same amount were added with anti-ERK antibody in the same amount, and reacted at 4° C. for 2 hours. Then, each of the samples was added with 10 μl of protein G-agarose (GenDEPOT) and reacted at 4° C. for 10 hours, and then centrifuged at 3000 rpm for 1 minute, washed with RIPA buffer, and centrifuged again. Then, the precipitated protein G-agarose was collected, and electrophoresis was carried out.

[3] = pachastrissamine 10 μg/ml + lithium chloride 300 nM (PA+Li)

degree of binding between ERK and FoxO3a (ERK and FoxO3a): significantly decreased
SMILES: CCCCCCCCCCCCCC[C@@H]1OC[C@H](N)[C@@H]1O [pachastrissamine]
number of cells compared to no treatment (B16F10 cell line; 10 μg/ml, FIGS. 2C, 2D): the number of cells was decreased
number of cells with lithium chloride as well as pachastrissamine, compared to only pachastrissamine (B16F10 cell line; [3]): the number of cells was higher
number of cells compared to no treatment (A375 cell line; 10 μg/ml, FIGS. 2C, 2D): the number of cells was decreased
number of cells with lithium chloride as well as pachastrissamine, compared to only pachastrissamine (A375 cell line; [3]): the number of cells was higher
phosphorylation of AKT after 30 minutes (AKT; 5 μg/ml phytosphingosine, 30 minutes): reduction of phosphorylation of AKT
degree of AKT phosphorylation after 60 minutes (AKT; 60 minutes): increased
ERK activation (phosphorylation of ERK) (ERK [1]): almost completely inhibited the phosphorylation of ERK; also recorded: reduction of ERK activation
ERK activity caused by EGF (ERK [2]): almost perfectly inhibit the ERK activity caused by EGF
movement of FoxO3a protein to a nucleus (FoxO3a; 10 μg/ml, 24 hours, FIG. 4D): significantly increased
distribution of intracellular FoxO3a protein in cells with over-expression of beta-catenin (FoxO3a; HaCaT with over-expression of beta-catenin (FoxO3a mostly in cytosol before treatment), FIG. 5D): moved into the nucleus again
